From patent US20050287085A1, “Composition for improving the physico-chemical properties of apatite-based materials, uses thereof and method using same” (DENTSPLY INTERNATIONAL INC., priority 2002, published 2005)

Experiment: Substitution in treated hydroxyapatite, mass spectrometry
Text: The analysis of the samples of treated hydroxyapatite is continued by mass spectrometry. The percentage of calcium substituted by titanium and the percentage of hydroxyl groups substituted by fluorine are compared with those obtained after bringing the hydroxyapatite into contact with the sodium fluoride solution.

## [F-].[Na+] [NaF, Sodium fluoride]
  Substitution of Ca by Ti: 0.3%
  Substitution of OH by F: 52.0%
